Reference: ChEMBL document CHEMBL5046269, “Multifunctional P450 Monooxygenase CftA Diversifies the Clifednamide Pool through Tandem C-H Bond Activations” (2022)

Assays:
Format in all cases: functional
Bacillus subtilis = assay: Antibacterial activity against Bacillus subtilis ATCC 6633 assessed as inhibition of bacterial growth measured after 18 hrs by CLSI protocol based microbroth dilution method
Staphylococcus aureus = assay: Antibacterial activity against Staphylococcus aureus ATCC 11632 assessed as inhibition of bacterial growth measured after 18 hrs by CLSI protocol based microbroth dilution method
Candida albicans = assay: Antifungal activity against Candida albicans ATCC 48130 assessed as inhibition of fungal growth measured after 18 hrs by CLSI protocol based microbroth dilution method
Micrococcus luteus = assay: Antibacterial activity against Micrococcus luteus ATCC 10240 assessed as inhibition of bacterial growth measured after 18 hrs by CLSI protocol based microbroth dilution method

Measured: MIC90

CC[C@H]1[C@@H]2C=C[C@@H]3[C@H]4C/C=C\C(=O)NCCC[C@@H]5NC(=O)C(=C5O)C(=O)/C=C/[C@@H]4C[C@@H]3[C@H]2C[C@H]1C
22.4 µM: all assays above
